{"source": "paper PMC8428256", "about": "(Journal of medicinal chemistry, 2021)", "key": {"WIL-FL F98D [1]": {"test_system": "WIL-FL F98D", "details": "Figure S5"}, "WIL-FL F98D [2]": {"test_system": "WIL-FL F98D", "details": "cited from earlier work"}, "[3]": {"target": "WIL-FL* (fluorescein-labeled WIL-FL LC dimer) (Homo sapiens, UniProt P01721, form not given/K101C)", "sequence (P01721 20-117 K101C, form open)": "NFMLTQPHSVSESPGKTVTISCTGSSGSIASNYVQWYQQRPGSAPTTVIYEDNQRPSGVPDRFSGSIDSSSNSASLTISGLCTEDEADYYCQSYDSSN", "assay": "Proteolysis-coupled fluorescence polarization", "type": "biochemical", "details": "for potency (EC50) increase compared to 1: WIL-FL* EC50 ratio to compound 1"}, "WIL-FL* T46L/F49Y": {"target": "WIL-FL* T46L/F49Y (Homo sapiens, UniProt P01721, form not given/K101C/T66L)", "sequence (P01721 20-117 T66L/K101C, form open)": "as the sequence (P01721 20-117 K101C, form open) above, with T47L counted along it", "details": "WIL-FL T46L/F49Y EC50"}, "plasma proteins": {"test_system": "plasma proteins", "type": "in vitro ADME, human or mouse", "details": "2 μM in plasma, dialysis 4 h, 37 °C"}, "[4]": {"test_system": "WIL-FL* (fluorescein-labeled WIL-FL LC dimer)", "sequence (P01721 20-117 K101C, form open)": "as the sequence (P01721 20-117 K101C, form open) above", "assay": "Proteolysis-coupled fluorescence polarization", "type": "biochemical, human", "details": "assay not given; data in Tables S2-S6 of the supplement"}}, "data": [{"smiles": "Cc1c(CCN2CC3(CCN(c4nccn5ccnc45)CC3)NC2=O)c(=O)oc2cc(O[C@H](C)c3ccccc3)ccc12", "note": "[(R)-83, (R)-8-(imidazo[1,2-a]pyrazin-8-yl)-3-(2-(4-methyl-2-oxo-7-(1-phenylethoxy)-2H-chromen-3-yl)ethyl)-1,3,8-triazaspiro[4.5]decan-2-one]", "values": [{"measurement": "proteinase K resistance provided to WIL-FL F98D", "setting": "WIL-FL F98D [1]", "result": "no appreciable proteinase K resistance"}]}, {"smiles": "CCN(CC)c1ccc2c(C)cc(=O)oc2c1", "note": "[Compound 1]", "values": [{"measurement": "binding to LC with F98D mutation", "setting": "WIL-FL F98D [2]", "result": "obviates binding"}]}, {"smiles": "CCN(CC)c1ccc2c(C)c(CCOC(=O)NCC3CCCNC3)c(=O)oc2c1", "note": "(centres unmarked) [Compound 18, 2-(7-(diethylamino)-4-methyl-2-oxo-2H-chromen-3-yl)ethyl (piperidin-3-ylmethyl)carbamate]", "values": [{"measurement": "potency (EC50) increase compared to 1", "setting": "[3]", "result": "≤ 8", "unit": "fold"}]}, {"smiles": "CCN(CC)c1ccc2c(C)c(CCOC(=O)NCc3cccnc3)c(=O)oc2c1", "note": "[Compound 20, 2-(7-(diethylamino)-4-methyl-2-oxo-2H-chromen-3-yl)ethyl (pyridin-3-ylmethyl)carbamate]", "values": [{"measurement": "potency (EC50) increase compared to 1", "setting": "[3]", "result": "≤ 8", "unit": "fold"}]}, {"smiles": "CCN(CC)c1ccc2c(C)c(CCOC(=O)NCCc3cccnc3)c(=O)oc2c1", "note": "[Compound 21, 2-(7-(diethylamino)-4-methyl-2-oxo-2H-chromen-3-yl)ethyl (2-(pyridin-3-yl)ethyl)carbamate]", "values": [{"measurement": "potency (EC50) increase compared to 1", "setting": "[3]", "result": "≤ 8", "unit": "fold"}]}, {"smiles": "CCN(CC)c1ccc2c(C)c(CCOC(=O)N(C)CCc3cccnc3)c(=O)oc2c1", "note": "[Compound 22, 2-(7-(diethylamino)-4-methyl-2-oxo-2H-chromen-3-yl)ethyl methyl(2-(pyridin-3-yl)ethyl)carbamate]", "values": [{"measurement": "reduced potency compared to the secondary carbamate 21", "setting": "[3]; WIL-FL* EC50", "result": 70, "unit": "fold"}]}, {"smiles": "CCN(CC)c1ccc2c(C)c(CCOC(=O)NCc3cccc(NC(C)=O)c3)c(=O)oc2c1", "note": "[Compound 23, 2-(7-(diethylamino)-4-methyl-2-oxo-2H-chromen-3-yl)ethyl (3-acetamidobenzyl)carbamate]", "values": [{"measurement": "potency (EC50) increase compared to 1", "setting": "[3]", "result": "up to 22 fold"}]}, {"smiles": "CCN(CC)c1ccc2c(C)c(CCOC(=O)NCc3cccc(C(N)=O)c3)c(=O)oc2c1", "note": "[Compound 25, 2-(7-(diethylamino)-4-methyl-2-oxo-2H-chromen-3-yl)ethyl (3-carbamoylbenzyl)carbamate]", "values": [{"measurement": "potency (EC50) increase compared to 1", "setting": "[3]", "result": "up to 22 fold"}]}, {"smiles": "CCN(CC)c1ccc2c(C)c(CCOC(=O)NCc3cccc(-c4c[nH]cn4)c3)c(=O)oc2c1", "note": "[Compound 26, 2-(7-(diethylamino)-4-methyl-2-oxo-2H-chromen-3-yl)ethyl (3-(1H-imidazol-4-yl)benzyl)carbamate]", "values": [{"measurement": "potency (EC50) increase compared to 1", "setting": "[3]", "result": 42, "unit": "fold"}]}, {"smiles": "CCN(CC)c1ccc2c(C)c(CCOC(=O)NCc3cccc(-c4ccc[nH]c4=O)c3)c(=O)oc2c1", "note": "[Compound 27, 2-(7-(diethylamino)-4-methyl-2-oxo-2H-chromen-3-yl)ethyl (3-(2-oxo-1,2-dihydropyridin-3-yl)benzyl)carbamate]", "values": [{"measurement": "proteinase K resistance provided to WIL-FL F98D", "setting": "WIL-FL F98D [1]", "result": "no appreciable proteinase K resistance"}]}, {"smiles": "Cc1cc(=O)oc2cc(OCC(C)c3ccccc3)ccc12", "note": "(centres unmarked) [Compound 57, 4-methyl-7-(2-phenylpropoxy)-2H-chromen-2-one]", "values": [{"measurement": "potency increase relative to 2", "setting": "WIL-FL* T46L/F49Y", "result": 9, "unit": "fold"}, {"measurement": "plasma protein binding (in words)", "setting": "plasma proteins", "result": "very high plasma protein binding"}]}, {"smiles": "Cc1c(CN2CCOCC2)c(=O)oc2cc(OC(C)c3ccccc3)ccc12", "note": "(centres unmarked) [Compound 62, 4-methyl-3-(morpholinomethyl)-7-(1-phenylethoxy)-2H-chromen-2-one]", "values": [{"measurement": "stabilizer potency (qualitative statement in text)", "setting": "[4]", "result": "slightly increased their potency"}]}, {"smiles": "Cc1c(CN2CCOCC2)c(=O)oc2cc(OCC(C)c3ccccc3)ccc12", "note": "(centres unmarked) [Compound 63, 4-methyl-3-(morpholinomethyl)-7-(2-phenylpropoxy)-2H-chromen-2-one]", "values": [{"measurement": "stabilizer potency (qualitative statement in text)", "setting": "[4]", "result": "slightly increased their potency"}]}]}
